Laboratory results from the NIST ThermoML archive (doi:10.1021/je300568h).
Numbers after ± are expanded uncertainties.

Settings: Liquid, Ebulliometric method (Recirculating still)

| SMILES | vapor or sublimation pressure (420.2 K) [kPa] | vapor or sublimation pressure (436.7 K) [kPa] | vapor or sublimation pressure (448.2 K) [kPa] | vapor or sublimation pressure (457.9 K) [kPa] | vapor or sublimation pressure (330.9 K) [kPa] | vapor or sublimation pressure (345 K) [kPa] | vapor or sublimation pressure (355.1 K) [kPa] | vapor or sublimation pressure (363.2 K) [kPa] | vapor or sublimation pressure (366.7 K) [kPa] |
| --- | --- | --- | --- | --- | --- | --- | --- | --- | --- |
| CCCCCCCCN(C)C [N,N-dimethyl-1-octanamine] | 29.84 ± 0.74 | 49.84 ± 0.89 | 69.83 ± 1.2 | 89.83 ± 1.3 |  |  |  |  |  |
| CCCCN(C)C [N,N-dimethylbutanamine] |  |  |  |  | 29.84 ± 0.86 | 49.84 ± 0.99 | 69.83 ± 1.3 | 89.83 ± 1.6 | 99.83 ± 1.7 |
